The source of these data is US9226916B2, “Pyrrolidine derivatives” (HOFFMANN-LA ROCHE INC., priority 2009, dated 2016).

Molecules are shown by their SMILES.

For the first assay, the target named is T1, recombinant human NK3 receptor (Homo sapiens, UniProt P29371).
T1 construct: expressed in transfected cells; host or cells: HEK293 cells, transient expression; membranes
T1 sequence (P29371 1-465): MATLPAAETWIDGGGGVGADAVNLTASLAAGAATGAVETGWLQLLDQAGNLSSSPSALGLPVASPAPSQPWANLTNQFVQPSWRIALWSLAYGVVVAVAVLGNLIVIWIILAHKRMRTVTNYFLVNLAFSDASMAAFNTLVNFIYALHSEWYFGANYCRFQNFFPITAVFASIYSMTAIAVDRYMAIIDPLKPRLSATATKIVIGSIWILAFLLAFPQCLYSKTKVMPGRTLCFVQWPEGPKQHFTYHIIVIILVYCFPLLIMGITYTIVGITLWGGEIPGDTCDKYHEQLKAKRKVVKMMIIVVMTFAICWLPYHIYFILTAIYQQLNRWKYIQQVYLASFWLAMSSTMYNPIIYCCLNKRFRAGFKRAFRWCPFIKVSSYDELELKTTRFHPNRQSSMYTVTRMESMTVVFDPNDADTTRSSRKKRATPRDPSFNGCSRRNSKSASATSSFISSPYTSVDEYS
Nature of the assay: [3H]SR142801 competition binding assay.
Details: not given
A word on the Ki: it is a measure of affinity in units of concentration, obtained from inhibition or displacement. Take `CN(C(=O)Oc1ccc(Cl)cc1)[C@@H]1CN(C(=O)C2CCN(C(=O)C3(C)CC3)CC2)C[C@H]1c1ccc(Cl)c(Cl)c1` [Example 19, {(3S,4R)-4-(3,4-Dichloro-phenyl)-1-[1-(1-methyl-cyclopropanecarbonyl)-piperidine-4-carbonyl]-pyrrolidin-3-yl}-methyl-carbamic acid 4-chlorophenyl ester]: the Ki was found to be 0.2 nM.

On to `CN(C(=O)Oc1ccc(F)c(Br)c1)[C@@H]1CN(C(=O)C2CCN(C(=O)C3(C)CC3)CC2)C[C@H]1c1ccc(Cl)c(Cl)c1` [Example 113, {(3S,4R)-4-(3,4-Dichloro-phenyl)-1-[1-(1-methyl-cyclopropanecarbonyl)-piperidine-4-carbonyl]-pyrrolidin-3-yl}-methyl-carbamic acid 3-bromo-4-fluoro-phenyl ester], for which the Ki is 0.3 nM.

Regarding `CO[C@H]1CC[C@@H](C(=O)N2C[C@H](c3ccc(Cl)c(Cl)c3)[C@@H](N(C)C(=O)Oc3ccc(F)cc3)C2)CC1` (racemic) [Example 49, rac-[(3R,4S)-4-(3,4-Dichloro-phenyl)-1-(cis-4-methoxy-cyclohexanecarbonyl)-pyrrolidin-3-yl]-methyl-carbamic acid 4-fluoro-phenyl ester], the Ki is 3.5 nM.

For `CN(C(=O)Oc1ccc(F)cc1)[C@@H]1CN(C(=O)C2CCN(c3ccc(O)cn3)CC2)C[C@H]1c1ccc(Cl)cc1` [Example 320, [(3S,4R)-4-(4-Chloro-phenyl)-1-(5′-hydroxy-3,4,5,6-tetrahydro-2H-[1,2′]bipyridinyl-4-carbonyl)-pyrrolidin-3-yl]-methyl-carbamic acid 4-fluoro-phenyl ester], the Ki came to 6.7 nM.

As to `COc1cnc(N2CCC(C(=O)N3C[C@@H](N(C)C(=O)Oc4ccc(F)cc4)[C@H](c4ccc(Cl)cc4)C3)CC2)nc1` [Example 190, {(3S,4R)-4-(4-Chloro-phenyl)-1-[1-(5-methoxy-pyrimidin-2-yl)-piperidine-4-carbonyl]-pyrrolidin-3-yl}-methyl-carbamic acid 4-fluoro-phenyl ester], the inhibition constant Ki is 17.2 nM.

For the compound `COc1ccc(N2CCC(C(=O)N3C[C@@H](N(C)C(=O)Oc4ccc(F)cc4)[C@H](c4ccc(Cl)cc4)C3)CC2)nn1` [Example 197, {(3S,4R)-4-(4-Chloro-phenyl)-1-[1-(6-methoxy-pyridazin-3-yl)-piperidine-4-carbonyl]-pyrrolidin-3-yl}-methyl-carbamic acid 4-fluoro-phenyl ester], the inhibition constant (Ki) amounted to 2.6 nM.

`CN(C(=O)Oc1ccc(F)cc1)[C@@H]1CN(C(=O)C2CCN(C(=O)CC#N)CC2)C[C@H]1c1ccc(Cl)c(Cl)c1` [Example 271, [(3S,4R)-1-[1-(2-Cyano-acetyl)-piperidine-4-carbonyl]-4-(3,4-dichloro-phenyl)-pyrrolidin-3-yl]-methyl-carbamic acid 4-fluoro-phenyl ester]: the Ki is 0.1 nM.

For `CCC(C)OC(=O)N(C)[C@@H]1CN(C(=O)C2CCN(c3ccc(C#N)cn3)CC2)C[C@H]1c1ccc(Cl)cc1` (stereo partly drawn) [Example 157, [(3S,4R)-4-(4-Chloro-phenyl)-1-(5′-cyano-3,4,5,6-tetrahydro-2H-[1,2′]bipyridinyl-4-carbonyl)-pyrrolidin-3-yl]-methyl-carbamic acid sec-butyl ester], the Ki is 27.1 nM.

Regarding `CN(C(=O)Oc1ccc(F)cc1)[C@@H]1CN(C(=O)C2CCN(c3ccc(C#N)nn3)CC2)C[C@H]1c1ccc(Cl)cc1` [Example 140, {(3S,4R)-4-(4-Chloro-phenyl)-1-[1-(6-cyano-pyridazin-3-yl)-piperidine-4-carbonyl]-pyrrolidin-3-yl}-methyl-carbamic acid 4-fluoro-phenyl ester], the Ki was 0.9 nM.

For the compound `CN(C(=O)Oc1ccc(F)cc1)[C@@H]1CN(C(=O)C2CCN(c3cc(C#N)ccn3)CC2)C[C@H]1c1ccc(Cl)cc1` [Example 185, [(3S,4R)-4-(4-Chloro-phenyl)-1-(4′-cyano-3,4,5,6-tetrahydro-2H-[1,2′]bipyridinyl-4-carbonyl)-pyrrolidin-3-yl]-methyl-carbamic acid 4-fluoro-phenyl ester], the Ki came to 3 nM.

Regarding `CC(=O)c1ccc(N2CCC(C(=O)N3C[C@@H](N(C)C(=O)Oc4ccc(F)cc4)[C@H](c4ccc(Cl)c(F)c4)C3)CC2)nc1` [Example 314, [(3S,4R)-1-(5′-Acetyl-3,4,5,6-tetrahydro-2H-[1,2′]bipyridinyl-4-carbonyl)-4-(4-chloro-3-fluoro-phenyl)-pyrrolidin-3-yl]-methyl-carbamic acid 4-fluoro-phenyl ester], the inhibition constant (Ki) was 0.6 nM.

Turning to `CN(C(=O)Oc1ccc(Cl)cn1)[C@@H]1CN(C(=O)C2CCN(c3ccc(C#N)cn3)CC2)C[C@H]1c1ccc(Cl)cc1` [Example 244, [(3S,4R)-4-(4-Chloro-phenyl)-1-(5′-cyano-3,4,5,6-tetrahydro-2H-[1,2′]bipyridinyl-4-carbonyl)-pyrrolidin-3-yl]-methyl-carbamic acid 5-chloro-pyridin-2-yl ester], the inhibition constant (Ki) is 20.9 nM.

With `CN(C(=O)Oc1ccc(F)cc1)[C@@H]1CN(C(=O)C2CCN(c3ccc(F)cn3)CC2)C[C@H]1c1ccc(Cl)cc1` [Example 195, [(3S,4R)-4-(4-Chloro-phenyl)-1-(5′-fluoro-3,4,5,6-tetrahydro-2H-[1,2′]bipyridinyl-4-carbonyl)-pyrrolidin-3-yl]-methyl-carbamic acid 4-fluoro-phenyl ester], the inhibition constant Ki amounted to 1.4 nM.

The assay is the same for the next values; noted with them: hNK-3 receptor affinity; membranes from HEK293 cells transiently expressing recombinant human NK3 receptor; [3H]SR142801; Cheng-Prussoff; read-out: Data Ki.
On to `CN(C(=O)OCCCC(F)(F)F)[C@H]1CN(C(=O)C2CCN(C(=O)C3(C)CC3)CC2)C[C@@H]1c1ccc(Cl)c(Cl)c1` [Example 81, {(3R,4S)-4-(3,4-Dichloro-phenyl)-1-[1-(1-methyl-cyclopropanecarbonyl)-piperidine-4-carbonyl]-pyrrolidin-3-yl}-methyl-carbamic acid 4,4,4-trifluoro-butyl ester], for which the inhibition constant (Ki) stood at 67 nM.

In the case of `CN(C(=O)OCCC(F)(F)F)[C@H]1CN(C(=O)C2CCN(c3ccc(C#N)cn3)CC2)C[C@@H]1c1ccc(Cl)cc1` [Example 145, [(3R,4S)-4-(4-Chloro-phenyl)-1-(5′-cyano-3,4,5,6-tetrahydro-2H-[1,2′]bipyridinyl-4-carbonyl)-pyrrolidin-3-yl]-methyl-carbamic acid 3,3,3-trifluoro-propyl ester], the inhibitory constant (Ki) turned out to be 56.9 nM.

In the case of `CN(C(=O)OCC1(C)CC1)[C@H]1CN(C(=O)C2CCN(C(=O)C3(C)CC3)CC2)C[C@@H]1c1ccc(Cl)c(Cl)c1` [Example 106, {(3R,4S)-4-(3,4-Dichloro-phenyl)-1-[1-(1-methyl-cyclopropanecarbonyl)-piperidine-4-carbonyl]-pyrrolidin-3-yl}-methyl-carbamic acid 1-methyl-cyclopropylmethyl ester], the inhibition constant (Ki) came to 1 nM.

As for `CN(C(=O)O[C@H]1CC[C@@H](C(F)(F)F)CC1)[C@H]1CN(C(=O)C2CCN(C(=O)C3(C)CC3)CC2)C[C@@H]1c1ccc(Cl)c(Cl)c1` [Example 107, {(3R,4S)-4-(3,4-Dichloro-phenyl)-1-[1-(1-methyl-cyclopropanecarbonyl)-piperidine-4-carbonyl]-pyrrolidin-3-yl}-methyl-carbamic acid 4-trifluoromethyl-cyclohexyl ester], the inhibitory constant (Ki) was 58.6 nM.

The target in a further assay is T2, NK3 tachykinin receptor (Homo sapiens, UniProt P29371).
T2 sequence (P29371 1-465): T1 sequence (P29371 1-465)
Test: not given
The note with it: phase II trial; negative symptoms (depression, anhedonia, social isolation, memory and attention deficits); cited from earlier work.
Regarding `CC(=O)N(C)C1(c2ccccc2)CCN(CCC[C@]2(c3ccc(Cl)c(Cl)c3)CCCN(C(=O)c3ccccc3)C2)CC1` [SR 142,801, Osanetant], the “activity in the treatment of negative symptoms of schizophrenia” value is “inactive”.

Staying with this assay, now noted: phase II trial; positive symptoms (altered behaviour, delusion, hallucinations, extreme emotions, excited motor activity, incoherent speech); cited from earlier work.
As for `CC(=O)N(C)C1(c2ccccc2)CCN(CCC[C@]2(c3ccc(Cl)c(Cl)c3)CCCN(C(=O)c3ccccc3)C2)CC1` [SR 142,801, Osanetant], the “activity on positive symptoms of schizophrenia” value is “active”.
